# Where two headings read alike, the source gives them in different places. Where a SMILES comes first, the peptide text is derived from it. Bridges are numbered along the chain shown (N, C = ends). [ ]: non-standard residue; d: D form. The star is where a group is joined. X4 = C[N+](C)(CCCC[C@H](NC(=O)CN1CCN(CC(=O)O)CCN(CC(=O)O)CCN(CC(=O)O)CC1)C(=O)*)CCCS(=O)(=O)[O-]; DOTA = O=C(O)CN1CCN(CC(=O)O)CCN(CC(=O)*)CCN(CC(=O)O)CC1; Pro(cis-4-F) = O=C(O)[C@@H]1C[C@H](F)CN1; 2Nal = N[C@@H](Cc1ccc2ccccc2c1)C(=O)O; Dopa = N[C@@H](Cc1ccc(O)c(O)c1)C(=O)O; Cyclopentanecarbonyl = O=C(C1CCCC1)*; Hyp = O=C(O)[C@@H]1C[C@@H](O)CN1; hPhe = N[C@@H](CCc1ccccc1)C(=O)O; Pentanoyl(4-Me) = CC(C)CCC(=O)*; Cit = NC(=O)NCCC[C@H](N)C(=O)O; Butoxycarbonyl = CCCCOC(=O)*; NMeK = CN[C@@H](CCCCN)C(=O)O; Pen = CC(C)(S)[C@H](N)C(=O)O; Api = NC1(C(=O)O)CCNCC1; Nva = CCC[C@H](N)C(=O)O; Pentanoyl = CCCCC(=O)*; Aib = CC(C)(N)C(=O)O; βAla = NCCC(=O)O
# What was measured:
# [1] = target: T1, uPAR-expressing HEC-265 human endometrial adenocarcinoma cells (Homo sapiens, UniProt Q03405); experiment: Competitive FACS binding assay; details: pIC50 category of FACS binding
# T1 construct: Cell surface uPAR-expressing HEC-265 human endometrial adenocarcinoma cells; host or cells: HEC-265
# Method in brief: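 HEC-265 cells incubated 1 h at 4 °C with 10 nM biotinylated uPAR peptide tracer plus increasing test compound, then stained with APC-streptavidin on ice. Median APC fluorescence by flow cytometry; 4PL fit gives pIC50.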
# human uPAR (uPAR-Fc) = target: T2, human uPAR (uPAR-Fc) (Homo sapiens, UniProt Q03405); experiment: Surface plasmon resonance (SPR) assay, single cycle kinetics; assay type: binding; details: pKD category for uPAR SPR activity assay, uPAR-Fc on Protein A-Chip, 25°C, read-out: pKD CAT (converted)
# T2 construct: comprising amino acids Leu23-Arg303 according to UniProt entry Q03405.1; purchased R&D Systems 10378-UK-100
# Method in brief: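 uPAR-Fc (Leu23-Arg303 extracellular domains, human IgG1 Fc) captured on Protein A chip to ~2000 RU; single-cycle kinetics at 25°C in HEPES running buffer pH 7.4 with 0.1% DMSO. KD from double-referenced sensorgrams fitted to 1:1 Langmuir model, reported as pKD.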
# T1 sequence (Q03405 23-335): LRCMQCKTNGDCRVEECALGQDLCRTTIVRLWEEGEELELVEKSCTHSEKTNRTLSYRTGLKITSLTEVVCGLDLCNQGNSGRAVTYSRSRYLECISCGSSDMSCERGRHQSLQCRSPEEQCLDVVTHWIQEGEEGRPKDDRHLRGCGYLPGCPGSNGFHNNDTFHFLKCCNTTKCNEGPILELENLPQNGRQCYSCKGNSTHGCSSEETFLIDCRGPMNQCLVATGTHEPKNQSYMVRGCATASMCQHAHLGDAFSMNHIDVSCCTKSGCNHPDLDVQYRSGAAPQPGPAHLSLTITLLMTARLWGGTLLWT
# T2 sequence (Q03405 23-303): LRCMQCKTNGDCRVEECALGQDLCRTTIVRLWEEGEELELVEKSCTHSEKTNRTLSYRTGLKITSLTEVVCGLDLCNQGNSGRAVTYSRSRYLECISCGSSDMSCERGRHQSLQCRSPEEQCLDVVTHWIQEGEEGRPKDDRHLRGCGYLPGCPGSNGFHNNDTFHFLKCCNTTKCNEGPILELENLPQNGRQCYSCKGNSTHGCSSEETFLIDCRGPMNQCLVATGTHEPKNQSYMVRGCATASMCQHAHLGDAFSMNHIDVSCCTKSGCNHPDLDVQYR
SMILES,IC50 [1],Kd (human uPAR (uPAR-Fc); single cycle kinetics),Kd (human uPAR (uPAR-Fc))
"CC[C@H](C)[C@@H]1NC(=O)[C@@H](C)NC(=O)[C@@H]2CCCN2C(=O)[C@H](Cc2ccccc2)NC(=O)[C@H](Cc2ccc(O)cc2)NC(=O)[C@H](CCCNC(N)=O)NC(=O)[C@H](CCCNC(N)=O)NC(=O)[C@@H](NC(=O)CCC(C)C)CSSC[C@@H](C(N)=O)NC(=O)[C@H](CC(C)C)NC1=O [UPAR-445, iHex-[Cys-Cit-Cit-Tyr-Phe-Pro-ala-Ile-Leu-Cys]-NH2] ({Pentanoyl(4-Me)}-C[Cit][Cit]YFP[dA]ILC-NH2; disulfide 1-10)",≤ 10 nM,< 1.58 nM,
"CC[C@H](C)[C@@H]1NC(=O)C2(CCN(C(=O)CN3CCN(CC(=O)O)CCN(CC(=O)O)CCN(CC(=O)O)CC3)CC2)NC(=O)[C@@H]2CCCN2C(=O)[C@H](Cc2ccccc2)NC(=O)[C@H](Cc2ccc(O)cc2)NC(=O)[C@H](CCC(N)=O)NC(=O)[C@H](CCCNC(=N)N)NC(=O)[C@@H](NC(=O)CCC(C)C)CSSC[C@@H](C(N)=O)NC(=O)[C@H](CC(C)C)NC1=O [UPAR-152, iHex-[Cys-Arg-Gln-Tyr-Phe-Pro-Apc(DOTA)-Ile-Leu-Cys]-NH2] ({Pentanoyl(4-Me)}-CRQYFP[Api](DOTA)ILC-NH2; disulfide 1-10)",≤ 10 nM,,< 1.58 nM
"CCCCOC(=O)N[C@H]1CSSC[C@@H](C(N)=O)NC(=O)[C@H](CCC)NC(=O)[C@H]([C@@H](C)CC)NC(=O)[C@@H]2C[C@@H](O)CN2C(=O)[C@@H]2C[C@H](F)CN2C(=O)[C@H](Cc2ccccc2)NC(=O)[C@H](Cc2ccc(O)c(O)c2)NC(=O)[C@H](CCCCNC(=O)[C@H](CCCC[N+](C)(C)CCCS(=O)(=O)[O-])NC(=O)CN2CCN(CC(=O)O)CCN(CC(=O)O)CCN(CC(=O)O)CC2)NC(=O)[C@H]([C@@H](C)O)NC1=O [UPAR-194, Butoc-[Cys-Thr-Lys(DOTA-Kzw)-Dopa-Phe-4Cfp-Hyp-Ile-Nva-Cys]-NH2] (Butoxycarbonyl-CTK(X4)[Dopa]F[Pro(cis-4-F)][Hyp]I[Nva]C-NH2; disulfide 1-10)",≤ 10 nM,,< 1.58 nM
"CC[C@H](C)[C@@H]1NC(=O)[C@H]2CCCN2C(=O)[C@@H]2CCCN2C(=O)[C@H](Cc2ccccc2)NC(=O)[C@H](Cc2ccc(O)cc2)NC(=O)[C@H](CCC(N)=O)NC(=O)[C@H](CCCNC(N)=O)NC(=O)[C@@H](NC(=O)CCC(C)C)CSSC[C@@H](C(N)=O)NC(=O)[C@H](CC(C)C)NC1=O [UPAR-305, iHex-[Cys-Cit-Gln-Tyr-Phe-Pro-pro-Ile-Leu-Cys]-NH2] ({Pentanoyl(4-Me)}-C[Cit]QYFP[dP]ILC-NH2; disulfide 1-10)",≥ 126 nM,,> 100 nM
"CCCCOC(=O)N[C@H]1CSSC[C@@H](C(=O)NCCC(=O)O)NC(=O)[C@H](CCC)NC(=O)[C@H]([C@@H](C)CC)NC(=O)[C@@H]2C[C@@H](O)CN2C(=O)[C@@H]2C[C@H](F)CN2C(=O)[C@H](Cc2ccccc2)NC(=O)[C@H](Cc2ccc(O)cc2)NC(=O)[C@H](CCCCNC(=O)CN2CCN(CC(=O)O)CCN(CC(=O)O)CCN(CC(=O)O)CC2)NC(=O)[C@H]([C@@H](C)O)NC1=O [UPAR-127, Butoc-[Cys-Thr-Lys(DOTA)-Tyr-Phe-4Cfp-Hyp-Ile-Nva-Cys]-Bal-OH] (Butoxycarbonyl-CTK(DOTA)YF[Pro(cis-4-F)][Hyp]I[Nva]C[βAla]-OH; disulfide 1-10)",≤ 10 nM,,1.58 to 10 nM
"CC[C@H](C)[C@@H]1NC(=O)[C@@H](C)NC(=O)[C@@H]2CCCN2C(=O)[C@H](Cc2ccccc2)NC(=O)[C@H](Cc2ccc(O)cc2)NC(=O)[C@H](CCC(N)=O)NC(=O)C(C)(C)NC(=O)[C@@H](NC(=O)CCC(C)C)CSSC[C@@H](C(N)=O)NC(=O)[C@H](CC(C)C)NC1=O [UPAR-468, iHex-[Cys-Aib-Gln-Tyr-Phe-Pro-ala-Ile-Leu-Cys]-NH2] ({Pentanoyl(4-Me)}-C[Aib]QYFP[dA]ILC-NH2; disulfide 1-10)",≤ 10 nM,1.58 to 10 nM,
"CCCCC(=O)N[C@H]1CSSC[C@@H](C(N)=O)NC(=O)[C@H](CCC)NC(=O)[C@H]([C@@H](C)CC)NC(=O)[C@@H]2C[C@@H](O)CN2C(=O)[C@@H]2CCCN2C(=O)[C@H](Cc2ccccc2)NC(=O)[C@H](Cc2ccc3ccccc3c2)NC(=O)[C@H](CCC(N)=O)NC(=O)[C@H](CCCNC(=N)N)NC1=O [UPAR-259, Pent-[Cys-Arg-Gln-2Ni-Phe-Pro-Hyp-Ile-Nva-Cys]-NH2] (Pentanoyl-CRQ[2Nal]FP[Hyp]I[Nva]C-NH2; disulfide 1-10)",≤ 10 nM,,< 1.58 nM
"CCCCOC(=O)N[C@H]1CSSC[C@@H](C(N)=O)NC(=O)[C@H](CCC)NC(=O)[C@H]([C@@H](C)CC)NC(=O)[C@@H]2C[C@@H](O)CN2C(=O)[C@@H]2C[C@@H](O)CN2C(=O)[C@H](Cc2ccccc2)NC(=O)[C@H](Cc2ccc(O)c(O)c2)NC(=O)[C@H](CCCCNC(=O)CN2CCN(CC(=O)O)CCN(CC(=O)O)CCN(CC(=O)O)CC2)NC(=O)[C@H]([C@@H](C)O)NC1=O [UPAR-284, Butoc-[Cys-Thr-Lys(DOTA)-Dopa-Phe-Hyp-Hyp-Ile-Nva-Cys]-NH2] (Butoxycarbonyl-CTK(DOTA)[Dopa]F[Hyp][Hyp]I[Nva]C-NH2; disulfide 1-10)",≤ 10 nM,,< 1.58 nM
"CCCCC(=O)N[C@H]1CSSC[C@@H](C(N)=O)NC(=O)[C@H](CC(C)C)NC(=O)[C@H]([C@@H](C)CC)NC(=O)[C@@H](C)NC(=O)[C@@H]2CCCN2C(=O)[C@H](Cc2ccccc2)NC(=O)[C@H](Cc2ccc(O)cc2)NC(=O)[C@H](CCC(N)=O)NC(=O)[C@H](CCCNC(N)=O)NC1=O [UPAR-362, Pent-[Cys-Cit-Gln-Tyr-Phe-Pro-ala-Ile-Leu-Cys]-NH2] (Pentanoyl-C[Cit]QYFP[dA]ILC-NH2; disulfide 1-10)",≤ 10 nM,< 1.58 nM,
"CCCCC(=O)N[C@@H](C)C(=O)N[C@@H](CCCNC(N)=O)C(=O)N[C@@H](CCC(N)=O)C(=O)N[C@@H](Cc1ccc(O)cc1)C(=O)N[C@@H](Cc1ccccc1)C(=O)N1CCC[C@H]1C(=O)N1C[C@H](O)C[C@H]1C(=O)N[C@H](C(=O)N[C@@H](CCC)C(=O)N[C@@H](CSC)C(N)=O)[C@@H](C)CC [UPAR-205, Pent-Ala-Cit-Gln-Tyr-Phe-Pro-Hyp-Ile-Nva-Smc-NH2] (Pentanoyl-A[Cit]QYFP[Hyp]I[Nva]C(Me)-NH2)",≥ 126 nM,,> 100 nM
"CCCCC(=O)N[C@H]1CSSC(C)(C)[C@@H](C(N)=O)NC(=O)[C@H](CCC)NC(=O)[C@H]([C@@H](C)CC)NC(=O)[C@@H]2C[C@@H](O)CN2C(=O)[C@@H]2CCCN2C(=O)[C@H](Cc2ccccc2)NC(=O)[C@H](Cc2ccc(O)cc2)NC(=O)[C@H](CCC(N)=O)NC(=O)[C@H](CCCNC(N)=O)NC1=O [UPAR-217, Pent-[Cys-Cit-Gln-Tyr-Phe-Pro-Hyp-Ile-Nva-Pen]-NH2] (Pentanoyl-C[Cit]QYFP[Hyp]I[Nva][Pen]-NH2; disulfide 1-10)",≤ 10 nM,,1.58 to 10 nM
"CCCCC(=O)N[C@H]1CSSC[C@@H](C(N)=O)NC(=O)[C@H](CCC)NC(=O)[C@H]([C@@H](C)CC)NC(=O)[C@H](CCCCN)N(C)C(=O)[C@@H]2CCCN2C(=O)[C@H](Cc2ccccc2)NC(=O)[C@H](Cc2ccc(O)cc2)NC(=O)[C@H](CCCCNC(=O)CN2CCN(CC(=O)O)CCN(CC(=O)O)CCN(CC(=O)O)CC2)NC(=O)[C@H](CCCNC(N)=O)NC1=O [UPAR-173, Pent-[Cys-Cit-Lys(DOTA)-Tyr-Phe-Pro-Nmk-Ile-Nva-Cys]-NH2] (Pentanoyl-C[Cit]K(DOTA)YFP[NMeK]I[Nva]C-NH2; disulfide 1-10)",≥ 126 nM,,> 100 nM
"CCCCC(=O)N[C@H]1CSSC[C@@H](C(N)=O)NC(=O)[C@H](CCC)NC(=O)[C@H]([C@@H](C)CC)NC(=O)[C@@H]2C[C@@H](O)CN2C(=O)[C@@H]2CCCN2C(=O)[C@H](Cc2ccccc2)NC(=O)[C@H](CCc2ccccc2)NC(=O)[C@H](CCC(N)=O)NC(=O)[C@H](CCCNC(=N)N)NC1=O [UPAR-366, Pent-[Cys-Arg-Gln-Hfe-Phe-Pro-Hyp-Ile-Nva-Cys]-NH2] (Pentanoyl-CRQ[hPhe]FP[Hyp]I[Nva]C-NH2; disulfide 1-10)",12.6 to 31.6 nM,10 to 100 nM,
"CC[C@H](C)[C@@H]1NC(=O)[C@@H](C)NC(=O)[C@@H]2CCCN2C(=O)[C@H](Cc2ccccc2)NC(=O)[C@H](Cc2ccc(O)cc2)NC(=O)[C@H](CCCCNC(=O)CN2CCN(CC(=O)O)CCN(CC(=O)O)CCN(CC(=O)O)CC2)NC(=O)[C@@H](CC(=O)O)NC(=O)[C@@H](NC(=O)[C@H](CC(C)C)NC(=O)[C@H](CC(=O)O)NC(C)=O)CSSC[C@@H](C(N)=O)NC(=O)[C@H](CC(C)C)NC1=O [UPAR-392, Ac-Asp-Leu-[Cys-asp-Lys(DOTA)-Tyr-Phe-Pro-ala-Ile-Leu-Cys]-NH2] (Ac-DLC[dD]K(DOTA)YFP[dA]ILC-NH2; disulfide 3-12)",≥ 126 nM,> 100 nM,
"CC[C@H](C)[C@@H]1NC(=O)[C@@H](C)NC(=O)[C@@H]2CCCN2C(=O)[C@H](Cc2ccccc2)NC(=O)[C@H](Cc2ccc(O)cc2)NC(=O)[C@H](CCC(N)=O)NC(=O)[C@H](CCCNC(N)=O)NC(=O)[C@@H](NC(=O)C2CCCC2)CSSC[C@@H](C(N)=O)NC(=O)[C@H](CC(C)C)NC1=O [UPAR-208, Cp-[Cys-Cit-Gln-Tyr-Phe-Pro-ala-Ile-Leu-Cys]-NH2] (Cyclopentanecarbonyl-C[Cit]QYFP[dA]ILC-NH2; disulfide 1-10)",≤ 10 nM,,< 1.58 nM
